Experimental data as given in ChEMBL document CHEMBL1151187, “Antioxidant xanthones from Garcinia vieillardii” (J Nat Prod, 2004).
Active and inactive are the calls of the source. No cut-off for these calls is given here.

Test system: Radical scavenging activity
Assay: Antioxidant activity assessed as DPPH radical scavenging activity
Assay type: functional

| SMILES | Activity |
| --- | --- |
| C=C(c1c(OC)cc(O)c2c(=O)c3ccc(O)c(O)c3oc12)C(C)C | Active |
| COc1ccc(O)c(C(C)(C)C)c1.COc1ccc(O)cc1C(C)(C)C | Active |
| C=CC(C)(C)c1c(O)cc(O)c2c(=O)c3ccc(O)c(O)c3oc12 | Active |
